Results on 20 compounds are retold here after US8030354B2, “Substituted biphenyl GPR40 modulators” (Amgen Inc., priority 2007, dated 2011).

Test [1] has as its target T1, GPR40 (Homo sapiens, UniProt O14842). Briefly: Aequorin luminescence in response to compounds. The test is classed as cell-based. Further details: expressed in transfected cells. To be noted: FIG. 2; as a function of concentration; compared with fatty acid ligands. An excerpt: FIG. 2 is a graph showing Aequorin luminescence in response to various compounds as a function of concentration.

In test [2] the target is T1, GPR40. In words: Cell-based aequorin assay (CHO cells stably expressing GPR40 and aequorin). Set-up: expressed in transfected cells; host or cells: CHO cells stably transfected with GPR40 and aequorin. The settings on record: for EC50: activation of human GPR40, CHO cells, 0.01% HSA. An outline of the steps:
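CHO cells stably co-expressing GPR40 and aequorin, loaded with coelenterazine (1 ug/mL, 2 h, room temperature) in H/HBSS with 20 mM Hepes and 0.01% fatty acid-free HSA. Serially diluted compounds added; luminescence recorded over 20 s. EC50 from dose-response of maximum relative light units.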

Test [3] concerns the target T1, GPR40. Briefly: Inositol phosphate accumulation assay (A9_GPR40 cells). The test is classed as cell-based. Further details: expressed in transfected cells; host or cells: CHO cells stably transfected with GPR40 and aequorin. To be noted: inositol phosphate assay, A9_GPR40 cells, 1 hour; read-out: IP3 EC50. In a few lines:
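A9 cells stably expressing GPR40 were labelled 16 h with 1 μCi/mL ^3H-inositol in inositol-free DMEM with dialysed FBS. Compounds in HBSS/10 mM LiCl with HSA were applied for 1 h at 37° C, then quenched with 20 mM formic acid. Accumulated [^3H] inositol phosphates were counted by SPA.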

Test [4] deals with fetal rat intestinal cells isolated from E19 rat embryos. In words: GLP-1 secretion into culture medium from fetal rat intestinal cells. To be noted: FIG. 5-7; cultured cells treated with serial dilutions of compound. Type of test: cell-based. The method, then: FIG. 5 is a graph showing the concentration of GLP-1 secreted into culture medium as a function of the amount of Example compounds 14 and 69.8. The GLP-1 was secreted from fetal rat intestinal cells isolated from E19 rat embryos. The cultured cells were treated with serial dilutions of the indicated compounds, and GLP-1 secreted into the culture medium was determined.
FIG. 6 is a graph showing the concentration of GLP-1 secreted into culture medium as a function of the amount of Example compound 66.6. The GLP-1 was secreted from fetal rat intestinal cells isolated from E19 rat embryos. The cultured cells were treated with serial dilutions of the indicated compound, and GLP-1 secreted into the culture medium was determined.
FIG. 7 is a graph showing the concentration of GLP-1 secreted into culture medium as a function of the amount of Example compounds 14, 66.17, 77.3, and 83.1. The GLP-1 was secreted from fetal rat intestinal cells isolated from E19 rat embryos. The cultured cells were treated with serial dilutions of the indicated compounds, and GLP-1 secreted into the culture medium was determined.

T1 sequence (O14842 whole entry): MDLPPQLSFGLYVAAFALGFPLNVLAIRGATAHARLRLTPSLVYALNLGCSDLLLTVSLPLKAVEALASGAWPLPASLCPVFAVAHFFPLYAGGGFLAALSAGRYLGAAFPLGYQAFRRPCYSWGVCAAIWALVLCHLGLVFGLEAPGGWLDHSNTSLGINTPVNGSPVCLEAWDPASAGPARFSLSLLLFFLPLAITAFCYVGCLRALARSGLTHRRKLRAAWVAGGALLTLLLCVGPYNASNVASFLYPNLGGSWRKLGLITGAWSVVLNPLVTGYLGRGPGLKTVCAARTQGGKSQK

The EC50 is the concentration at which the effect is half-maximal. Consider `COc1ccc(F)c(-c2ccc(COc3cccc([C@@H](CC(=O)O)C4CC4)c3)cc2C2CCCC2(C)C)c1` (single isomer, unassigned) [Example 66.4, (3S)-3-Cyclopropyl-3-(3-(((2-(2,2-dimethylcyclopentyl)-2′-fluoro-5′-(methyloxy)-1,1′-biphenyl-4-yl)methyl)oxy)phenyl)propanoic acid or (3R)-3-cyclopropyl-3-(3-(((2-(2,2-dimethylcyclopentyl)-2′-fluoro-5′-(methyloxy)-1,1′-biphenyl-4-yl)methyl)oxy)phenyl)propanoic acid], for which the Aequorin luminescence entry in test [1] was “equivalent to naturally occurring fatty acid ligands”. Moreover, the figures for the EC50 in test [2] and in test [3] were 100 to 1000 nM and < 10 nM, respectively. Moreover, the “agonist type in aequorin assay” value in test [2] (compared with α-linolenic acid and docosahexaenoic acid, FIG. 2) is “potent full agonists”.
As for `COc1ccc(F)c(-c2ccc(COc3cccc(C(CC(=O)O)C4CC4)c3)cc2C2CCCC2(C)C)c1` (single isomer, unassigned) [Example 66.6], the “concentration of GLP-1 secreted into culture medium” value (“concentration” for short) in test [4] was “significantly stimulated GLP-1 secretion”. Further, the half-maximal effective concentration (EC50) is 10 to 100 nM in test [2] and < 10 nM in test [3].
Regarding `COc1ccc(F)c(-c2ccc(COc3cccc([C@@H](CC(=O)O)C4CC4)c3)cc2CC(C)(C)C)c1` (single isomer, unassigned) [Example 66.17, (3S)-3-Cyclopropyl-3-(3-(((2-(2,2-dimethylpropyl)-2′-fluoro-5′-(methyloxy)-1,1′-biphenyl-4-yl)methyl)oxy)phenyl)propanoic acid or (3R)-3-cyclopropyl-3-(3-(((2-(2,2-dimethylpropyl)-2′-fluoro-5′-(methyloxy)-1,1′-biphenyl-4-yl)methyl)oxy)phenyl)propanoic acid], the “concentration” value in test [4] is “significantly stimulated GLP-1 secretion”. The EC50 in test [2] was 10 to 100 nM; in test [3], < 10 nM.
With `COc1ccc(F)c(-c2ccc(COc3cccc([C@@H](CC(=O)O)CC4CC4)c3)cc2[C@H]2CCCC2(C)C)c1` (single isomer, unassigned) [Example 69.8], in test [4], the “concentration” value is recorded as “significantly stimulated GLP-1 secretion”. Further, the half-maximal effective concentration (EC50) was 10 to 100 nM in test [2] and < 10 nM in test [3].
For `CCC(CC(=O)O)c1cccc(OCc2ccc(-c3cc(OC)ccc3F)c(C3CCCC3(C)C)c2)c1F` (single isomer, unassigned) [Example 77.3] the same measures were “significantly stimulated GLP-1 secretion”, 100 to 1000 nM and < 10 nM.
`COc1ccc(F)c(-c2ccc(COc3cccc(C(CC(=O)O)C4CC4)c3F)cc2C2CCCC2(C)C)c1` (single isomer, unassigned) [Example 83.1]: the “concentration” value in test [4] is given as “significantly stimulated GLP-1 secretion”. Further, the EC50 in test [2] was 10 to 100 nM; in test [3], < 10 nM.
In the case of `COc1ccc(F)c(-c2ccc(COc3cccc([C@H](CC(=O)O)C4CC4)c3)cc2[C@@H]2CCCC2(C)C)c1` (single isomer, unassigned) [Example 97.3], the EC50 in test [2] lay within 100 to 1000 nM; in test [3], 10 to 100 nM.
On to `COc1ccc(F)c(-c2ccc(COc3cccc(C(CC(=O)O)C4CC4)c3F)cc2C2CCCC2(C)C)c1` (single isomer, unassigned) [Example 99.2], for which the EC50 in test [2] lay within 100 to 1000 nM; in test [3], 10 to 100 nM.
With `CCC(C)(CC(=O)O)c1cccc(OCc2ccc(-c3cc(OC)ccc3F)c([C@@H]3CCCC3(C)C)c2)c1` (single isomer, unassigned) [Example 103, 3-(3-(((2-((1S)-2,2-Dimethylcyclopentyl)-2′-fluoro-5′-(methyloxy)-1,1′-biphenyl-4-yl)methyl)oxy)phenyl)-3-methylpentanoic acid or 3-(3-(((2-((1R)-2,2-dimethylcyclopentyl)-2′-fluoro-5′-(methyloxy)-1,1′-biphenyl-4-yl)methyl)oxy)phenyl)-3-methylpentanoic acid], the results for the EC50 in test [2] and in test [3] were 100 to 1000 nM and 10 to 100 nM, respectively.
For the compound `COc1ccc(F)c(-c2ccc(COc3cccc(C(C)(CC(=O)O)C4CC4)c3)cc2[C@H]2CCCC2(C)C)c1` (single isomer, unassigned) [Example 104, 3-Cyclopropyl-3-(3-(((2-((1S)-2,2-dimethylcyclopentyl)-2′-fluoro-5′-(methyloxy)-1,1′-biphenyl-4-yl)methyl)oxy)phenyl)butanoic acid or 3-cyclopropyl-3-(3-(((2-((1R)-2,2-dimethylcyclopentyl)-2′-fluoro-5′-(methyloxy)-1,1′-biphenyl-4-yl)methyl)oxy)phenyl)butanoic acid], the results for the EC50 in test [2] and in test [3] were 100 to 1000 nM and 10 to 100 nM, respectively.
In the case of `COc1ccc(F)c(-c2ccc(COc3cccc(C4(CC(=O)O)CCCCC4)c3)cc2C2CCCC2(C)C)c1` (single isomer, unassigned) [Example 105.1, (1-{3-[2-((S)-2,2-Dimethyl-cyclopentyl)-2′-fluoro-5′-methoxy-biphenyl-4-ylmethoxy]-phenyl}-cyclohexyl)-acetic acid or (1-{3-[2-((R)-2,2-dimethyl-cyclopentyl)-2′-fluoro-5′-methoxy-biphenyl-4-ylmethoxy]-phenyl}-cyclohexyl)-acetic acid], the results for the EC50 in test [2] and in test [3] were 100 to 1000 nM and 10 to 100 nM, respectively.
As for `COc1ccc(F)c(-c2ccc(COc3cccc(CCC(=O)O)c3)cc2C(C)(C)C)c1` [Example 34, 3-(3-(((2-(1,1-Dimethylethyl)-2′-fluoro-5′-(methyloxy)-1,1′-biphenyl-4-yl)methyl)oxy)phenyl)propanoic acid], the EC50 in test [2] and in test [3] was 100 to 1000 nM each time.
As for `COc1cccc(-c2ccc(COc3cccc(CCC(=O)O)c3)cc2OC(F)(F)F)c1` [Example 37, 3-[3-(3′-Methoxy-2-trifluoromethoxy-biphenyl-4-ylmethoxy)-phenyl]-propionic acid], the EC50 in test [2] is 100 to 1000 nM; in test [3], > 1000 nM.
With `COc1ccc(F)c(-c2ccc(COc3cccc(CCC(=O)O)c3)cc2OC(F)(F)F)c1` [Example 38, 3-[3-(2′-Fluoro-5′-methoxy-2-trifluoromethoxy-biphenyl-4-ylmethoxy)-phenyl]-propionic acid], the EC50 in test [2] fell in the range of 100 to 1000 nM; in test [3], 1000 to 10000 nM.
Consider `COc1ccc(F)c(-c2ccc(COc3cccc(CCC(=O)O)c3)cc2C2=CCCC2)c1` [Example 39, 3-[3-(2-Cyclopent-1-enyl-2′-fluoro-5′-methoxy-biphenyl-4-ylmethoxy)-phenyl]-propionic acid], for which the EC50 in test [2] is 1000 to 10000 nM; in test [3], 100 to 1000 nM.
On to `COc1cccc(-c2ccc(COc3cccc(C(CC(=O)O)C4CC4)c3)cc2C2CCCC2(C)C)c1` (centres unmarked) [Example 66.8], for which the figures for the half-maximal effective concentration (EC50) in test [2] and in test [3] were 10 to 100 nM and < 10 nM, respectively.
Turning to `COc1ccc(F)c(-c2ccc(COc3cc(CCC(=O)O)ccn3)cc2C(C)(C)C)c1` [Example 72, 3-(2-(((2-(1,1-Dimethylethyl)-2′-fluoro-5′-(methyloxy)-1,1′-biphenyl-4-yl)methyl)oxy)-4-pyridinyl)propanoic acid], the EC50 in test [2] lay within 100 to 1000 nM; in test [3], 1000 to 10000 nM.
On the same counts, the results for `COc1ccc(F)c(-c2ccc(COc3cccc(C(C)(C)CC(=O)O)c3)cc2C(C)(C)C)c1` [Example 85.1, 3-[3-(2-tert-Butyl-2′-fluoro-5′-methoxy-biphenyl-4-ylmethoxy)-phenyl]-3-methyl-butyric acid] are 100 to 1000 nM and 100 to 1000 nM.
On the same counts, the results for `COc1ccc(F)c(-c2ccc(COc3cccc(C(C)(C)CC(=O)O)c3)cc2C2=CCCC2(C)C)c1` [Example 85.2, 3-{3-[2-(5,5-Dimethyl-cyclopent-1-enyl)-2′-fluoro-5′-methoxy-biphenyl-4-ylmethoxy]-phenyl}-3-methyl-butyric acid] are 100 to 1000 nM and 10 to 100 nM.
Consider `COc1ccc(F)c(-c2ccc(COc3cc(CCC(=O)O)ccn3)cc2C2=CCCC2(C)C)c1` [Example 95, 3-(2-(((2-(5,5-Dimethyl-1-cyclopenten-1-yl)-2′-fluoro-5′-(methyloxy)-1,1′-biphenyl-4-yl)methyl)oxy)-4-pyridinyl)propanoic acid], for which the EC50 in test [2] and in test [3] was 100 to 1000 nM throughout.
